Data: US5883136A, “Anhydroretinol and derivatives thereof as antagonists of immune responses and inhibitors of cancer cell growth” (Sloan-Kettering Institute for Cancer Research, priority 1995, dated 1999)
Like-named read-outs stand apart in the source and are kept apart here.

Assays:
[1] = biological target: T1, cellular retinol binding protein (CRBP I) (Homo sapiens, UniProt P09455); assay: Dissociation constant to cellular retinol binding protein by fluorometric titration; conditions: for Kd: fluorometric titration, 150 mM NaCl, 0.1 mM DTT, 25 mM HEPES
T1 sequence (P09455 1-135): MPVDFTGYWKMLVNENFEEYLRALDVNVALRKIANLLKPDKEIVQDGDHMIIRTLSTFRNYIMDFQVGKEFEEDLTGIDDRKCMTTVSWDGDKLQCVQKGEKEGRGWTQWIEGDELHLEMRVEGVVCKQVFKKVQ
Experimental: (§1) Apo-protein (1-3 μM) was titrated with the appropriate all-trans-retinoid dissolved in ethanol and the titration was followed by measuring the increase in the fluorescence of the retinoids upon binding. Reaction mixtures included 150 mM NaCl, 0.1 mM DTT, and 25 mM HEPES; pH's were 7.0 and 7.4, respectively. […] Data analyses were performed as described by Cogan et al. (14). Human RBP was purified from human serum by means of a transthyretin column (15). Human CRBP I and CRABP I were gifts from Dr. W. S. Blaner (Columbia University, New York, N.Y.) and Dr. J. Napoli (SUNY, Buffalo, N.Y.), respectively.

[2] = biological target: cellular retinoic acid binding protein (CRABP I) (Homo sapiens, UniProt P29762); assay: Dissociation constant to cellular retinoic acid binding protein by fluorometric titration; conditions: no binding = no significant binding could be detected
Experimental: as §1

[3] = system: T cell leukemia line Jurkat; assay: Jurkat T cell leukemia growth, viable cell count with trypan blue; assay type: cell-based, human
Description: Viable cells in each culture were counted. On days 4 and 6 nutrients were replenished.
The T cell leukemia line Jurkat was transferred from normal, FCS-containingmedium to serum-free medium ITLB. […] Cells were counted daily differentially in the presence of trypan blue, and the total number of cells generated in each culture plotted in FIG. 3A. It is evident that cells deprived of retinol decline in numbers as compared to cells with retinol.

[4] = system: interleukin-2 (IL-2); assay: IL-2 release by stimulated thymocytes, CTLL assay; assay type: cell-based, murine; conditions: for IL-2 production: presence or absence of retinol or 14-HRR, previous unpublished work
Experimental: (§2) Murine thymocytes (2×10^5 /well in triplicates) were cultured in ITLB medium in 96-well plates coated with 10 μg/ml anti-CD3^ε mAB (12) as described (3). […] Cell proliferation was tested on day 3 by ^3 H thymidine incorporation into DNA. […] The results of cell proliferation assays performed at 72 hours are shown. […] CTLL proliferation was measured by ^3 H thymidine incorporation into DNA (FIG. 4D). The standard deviation of triplicate measurements were <10%.

[5] = system: CTLL cell line; assay: CTLL cell line proliferation, 3H thymidine incorporation; assay type: cell-based; conditions: for CTLL proliferation: control experiments; for CTLL responsiveness to retinol and AR: with recombinant IL-2, broad dose ranges, data not shown
Experimental: as §2

[6] = system: IL-2 receptor; assay: IL-2 receptor expression of activated T cells; assay type: cell-based; conditions: presence or absence of retinol or 14-HRR, previous unpublished work
[7] = system: Il-2 dependent TH cell clones and T cell hybridoma; assay: Growth of Il-2 dependent TH cell clones and T cell hybridoma; assay type: cell-based; conditions: previous unpublished observations
[8] = system: Murine thymocytes; conditions: T cell receptor-generated signals, serum-free medium, ref. (3); cited from earlier work
[9] = biological target: T2, serum retinol binding protein (RBP) (Homo sapiens, UniProt P02753); assay: Dissociation constant to serum retinol binding protein by fluorometric titration
T2 construct: Human RBP was purified from human serum; from tissue; host or cells: human serum
Experimental: as §1

[10] = system: Human B lymphoblastoid cells (5/2); assay: B lymphoblastoid cell proliferation, 3H thymidine incorporation; assay type: cell-based
Experimental: (§3) Human B lymphoblastoid cells (e.g., cell line 5/2) were cultured in medium RPMI 1640 with 7% fetal calf serum. On the day of the assay, cells were washed and transferred to serum-free medium, RPMI 1640 supplemented with insulin, transferrin, linoleic acid, and bovine albumin (ITLB medium) as described (3). Test reagents at indicated concentrations were added to triplicate cultures of […] in 96 well plates (final volume of 200 μl/well) and cell proliferation tested 1 day (FIGS. 2B, 2C, 2D) or 3 days later (FIG. 2A) by ^3 H thymidine incorporation into DNA. […] Three additional human lymphoblastoid cell lines, Hom 2, Jest and Ducaf were tested under the conditions specified for FIG. 2A (FIG. 2D).

[11] = system: human lymphoblastoid cell lines; assay: B lymphoblastoid cell proliferation, 3H thymidine incorporation (Hom 2, Jest, Ducaf); assay type: cell-based; conditions: several randomly selected lines, FIG. 2D
Experimental: as §3

[12] = system: murine B cell lymphoma; assay: Inhibition of murine B cell lymphoma by AR; assay type: cell-based
[13] = system: Murine thymocytes; assay: Activation of murine thymocytes with anti-CD3, 3H thymidine incorporation; assay type: cell-based
Experimental: as §2

[14] = system: 14-HRR synthesis; assay: Metabolic rate of 14-HRR synthesis from 3H labelled retinol; assay type: cell-based; conditions: hundredfold excess of AR, data not shown
Description: Therefore, competitive inhibition at the level of CRBP is a realistic possibility to explain the retinol-AR antagonism. […] By inference, a separate 14-HRR binding protein/receptor, as yet to be defined, may exist.

[15] = system: lymphocytes; assay: Metabolism by lymphocytes to retinol or 14-HRR; assay type: in vitro ADME; conditions: unpublished data
[16] = system: SF 21 cells; assay: Metabolites of [3H] retinol in SF 21 cells, HPLC; assay type: in vitro ADME, insect; conditions: SF 21, 4 hours, FIG. 1B
Experimental: (§4) After 4 hours (FIGS. 1A and 1B) or after 16 hours (FIG. 1C) retinoids were extracted from the washed cell pellet according to the procedure of McClean et al. (16). Retinoids were separated on an analytical C18 reversed-phase column and detected with an on-line scintillation counter using the methodology described in Buck et al. (4). […] The peak eluting at minute 29 is the all-trans anhydroretinol, whereas the companion peaks at minute 27 and 28 represent cis-isomers (14). All isomers yield spectra with characteristic vibronic fine structure similar to the spectrum of all-trans AR.

[17] = system: SF-9 cells; assay: Metabolites of [3H] retinol in SF-9 cells, HPLC; assay type: in vitro ADME, insect; conditions: SF-9, 4 hours, FIG. 1A
Experimental: as §4

[18] = system: Human lymphoblastoid 5/2 cells; assay: Metabolites of [3H] retinol in lymphoblastoid 5/2 cells, HPLC; assay type: in vitro ADME; conditions: 5/2, 16 hours, FIG. 1C
Experimental: as §4

[19] = system: DU145; assay: Tumor cell sensitivity to anhydroretinol, prostate carcinoma; assay type: cell-based; conditions: DU145, FIG. 6A
Description: (§5) FIGS. 6A-6B show titrations for the inhibition by AR of prostate carcinoma cell lines DU145, PC-3 and LNCAP.

[20] = system: LNcAP; assay: as above; assay type: cell-based; conditions: FIG. 6C
Description: as §5

[21] = system: B lymphocyte; assay: B lymphocyte proliferation (summary statement); assay type: cell-based
[22] = system: resting T lymphocytes; assay: Activation of resting T lymphocytes (summary statement); assay type: cell-based
[23] = system: lymphocytes; assay: Cultures of lymphocytes with 14-HRR as agonist; assay type: cell-based; conditions: FIGS. 2B and 4B

cellular retinoic acid binding protein (CRABP I), sequence (P29762 whole entry): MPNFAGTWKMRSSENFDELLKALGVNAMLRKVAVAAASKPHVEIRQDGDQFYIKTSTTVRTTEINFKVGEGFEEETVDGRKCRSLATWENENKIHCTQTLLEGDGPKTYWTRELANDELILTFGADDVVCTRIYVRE

Q: With `CC1=C(/C=C/C(C)=C/C=C/C(C)=C/CO)C(C)(C)CCC1` [retinol, all-trans retinol] as the compound, how does the Kd [1] read?
A: The Kd was 0.013 µM.

Q: What about the “dissociation constant CRABP I (binding in words)” value [2] of the same compound?
A: The value was “no binding”.

Q: What about the “rescue of Jurkat cells on reintroduction of retinol” value ([3]; after day 6) of the same compound?
A: Its value is “allows rescue of the cells”.

Q: And the “dependence of Jurkat cells on retinol” value ([3]; serum-free medium ITLB, 4×10^-6 M retinol)?
A: Its value is “retinol-dependent”.

Q: What about the IL-2 production [4] of the same compound?
A: The IL-2 production was “unaffected”.

Q: What about the CTLL proliferation [5] of the same compound?
A: Its CTLL proliferation is “completely inert”.

Q: And the “CTLL responsiveness to retinol and AR” value [5]?
A: The value was “independent of either retinoid”.

Q: And the IL-2 receptor expression [6]?
A: The IL-2 receptor expression was “unaffected”.

Q: And the “growth dependence on retinol and 14-HRR” value [7]?
A: Its value is “grow independently”.

Q: What about the “activation of resting thymocytes, cofactor dependence” value [8] of the same compound?
A: Its value is “dependent on retinoid cofactors”.

Q: What does the source list for `CC(C=CC=C(C)C(O)CO)=CC=C1C(C)=CCCC1(C)C` (stereo not drawn) [Compound 14-HRR, 14-hydroxy-4,14-retro-retinol]?
A: Kd [9]: 0.12 µM; binding to CRBP [1]: does not bind to CRBP with appreciable affinity; dissociation constant CRBP I (binding in words) ([1]; no binding = no significant binding could be detected): no binding; dissociation constant CRABP I (binding in words) [2]: no binding; IL-2 production [4]: unaffected; CTLL proliferation [5]: completely inert; IL-2 receptor expression [6]: unaffected; growth dependence on retinol and 14-HRR [7]: grow independently; activation of resting thymocytes, cofactor dependence [8]: dependent on retinoid cofactors

Q: Which results are given for `C=CC(C)=CC=CC(C)=CC=C1C(C)=CCCC1(C)C` [AR, Anhydroretinol]?
A: Kd ([9]; fluorometric titration, 150 mM NaCl, 0.1 mM DTT, 25 mM HEPES, read-out: dissociation constant RBP): 0.02 µM; Kd [1]: 0.023 µM; dissociation constant CRABP I (binding in words) [2]: no binding; antagonism of 14-HRR ([10]; AR 5×10^-6 M vs 1.3×10^-6 M 14-HRR, FIG. 2B): clear antagonism; antagonism of retinol ([10]; AR 5×10^-6 M vs 3.7×10^-6 M retinol, FIG. 2A): clear antagonism; support of B cell proliferation ([10]; FIG. 2A): nor does it support B cell proliferation; inhibition of B cell cultures ([10]; graded concentrations of fetal calf serum (FIG. 2C) or RBP/retinol complex (data not shown)): strongly inhibitory; ID50 values ([10]; graded concentrations of fetal calf serum or RBP/retinol complex): comparable to those seen in retinol-supplemented cultures; inhibitory dose (ID50) ([10]; serum-free medium supplemented with retinol or 14-HRR): dependent on the agonist concentration; competitive antagonism of retinol or 14-HRR ([10]; serum-free medium with retinol or 14-HRR, FIGS. 2A, 2B): competitive antagonist; growth inhibition of B cell cultures ([10]; ten percent fetal bovine serum containing medium, FIG. 2C): strong growth inhibition; sensitivity to inhibition by AR [11]: all proved sensitive to inhibition; sensitivity to inhibition by AR [12]: all proved sensitive to inhibition; thymidine uptake of cycling thymocytes ([13]; AR given 2 days after activation, FIG. 4C): able to reduce the thymidine uptake of cycling thymocytes; inhibition of thymocyte activation ([13]; retinol or 14-HRR as cofactor, anti-CD3, FIGS. 4A, 4B): pronounced; IL-2 release ([4]; supernatants after 18 hours, FIG. 4D): did not interfere with IL-2 release; CTLL proliferation [5]: completely inert; CTLL responsiveness to retinol and AR [5]: independent of either retinoid; metabolic rate of 14-HRR synthesis [14]: no change; metabolism by lymphocytes to retinol or to 14-HRR [15]: not metabolized; AR as metabolite of [3H] retinol [16]: predominant metabolite; AR as metabolite of [3H] retinol [17]: undetectable; AR as metabolite of [3H] retinol [18]: also produced AR; inhibition by AR, relative sensitivity [19]: highest sensitivity; inhibition by AR, relative sensitivity [20]: appears to be insensitive; B lymphocyte proliferation [21]: block B lymphocyte proliferation; aid to B cell proliferation [21]: not to aid B cell proliferation; activation of resting T lymphocytes [22]: block B lymphocyte proliferation as well as activation of resting T lymphocytes; inhibition of lymphocyte cultures with 14-HRR as agonist [23]: reversibly inhibits
